Data published in article PMC3867380, “Fluorescence Imaging-Based High-Throughput Screening of Fast- and Slow-Cycling LOV Proteins” (PLoS ONE, 2013).

Tests used:
[1] = target: T1, AsLOV2 (second LOV domain of Avena sativa phototropin 1) (Avena sativa, UniProt O49003); test: absorption and fluorescence spectra of co-purified flavin; photoadduct formation and dark recovery at […] nm; format: binding; conditions: room temperature; pH 7.5; flavin co-purified from E. coli; blue-light-induced reversible covalent adduct with Cys450
T1 construct: gene NPH1-1; LOV2 domain with J-alpha helix, residues 404-560; N-terminal 6xHis tag; synthetic cDNA with mammalian codons in pCold I; E. coli DH5alpha; TALON purified
T1 sequence (O49003 entry or part of it): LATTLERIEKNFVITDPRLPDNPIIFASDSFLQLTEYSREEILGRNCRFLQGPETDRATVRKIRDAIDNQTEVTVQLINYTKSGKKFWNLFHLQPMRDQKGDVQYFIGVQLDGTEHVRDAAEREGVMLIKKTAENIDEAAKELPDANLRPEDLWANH

[2] = target: T2, AsLOV2 (second LOV domain of Avena sativa phototropin 1) (Avena sativa, UniProt O49003, V416C/T418P/N425P/I466V/F494K); test: flavin fluorescence recovery imaging in E. coli colonies after blue light; format: cell-based; conditions: colonies on agar, 50 °C and 25 °C; endogenous flavin; blue-light-induced reversible covalent adduct
T2 construct: gene NPH1-1; LOV2 domain with J-alpha helix, residues 404-560; N-terminal 6xHis tag; synthetic cDNA with mammalian codons in pCold I; E. coli DH5alpha; TALON purified
T2 sequence (O49003 entry or part of it V416C/T418P/N425P/I466V/F494K): as the sequence (O49003 entry or part of it) above, with V13C, T15P, N22P, I63V, F91K counted along it

[3] = target: T3, AsLOV2 (second LOV domain of Avena sativa phototropin 1) (Avena sativa, UniProt O49003, N425Q/I427V); test: as above; format: cell-based; conditions: colonies on agar, on ice and 25 °C; endogenous flavin; blue-light-induced reversible covalent adduct
T3 construct: gene NPH1-1; LOV2 domain with J-alpha helix, residues 404-560; N-terminal 6xHis tag; synthetic cDNA with mammalian codons in pCold I; E. coli DH5alpha; TALON purified
T3 sequence (O49003 entry or part of it N425Q/I427V): as the sequence (O49003 entry or part of it) above, with N22Q, I24V counted along it

[4] = target: T4, AsLOV2 (second LOV domain of Avena sativa phototropin 1) (Avena sativa, UniProt O49003, N425S/I427L/I466M); test: as above; format: cell-based; conditions: colonies on agar, on ice and 25 °C; endogenous flavin; blue-light-induced reversible covalent adduct
T4 construct: gene NPH1-1; LOV2 domain with J-alpha helix, residues 404-560; N-terminal 6xHis tag; synthetic cDNA with mammalian codons in pCold I; E. coli DH5alpha; TALON purified
T4 sequence (O49003 entry or part of it N425S/I427L/I466M): as the sequence (O49003 entry or part of it) above, with N22S, I24L, I63M counted along it

[5] = target: T5, AsLOV2 (second LOV domain of Avena sativa phototropin 1) (Avena sativa, UniProt O49003, V416T/T418S); test: as above; format: cell-based; conditions: colonies on agar, on ice and 25 °C; endogenous flavin; blue-light-induced reversible covalent adduct
T5 construct: gene NPH1-1; LOV2 domain with J-alpha helix, residues 404-560; N-terminal 6xHis tag; synthetic cDNA with mammalian codons in pCold I; E. coli DH5alpha; TALON purified
T5 sequence (O49003 entry or part of it V416T/T418S): as the sequence (O49003 entry or part of it) above, with V13T, T15S counted along it

SMILES: Cc1cc2nc3c(=O)[nH]c(=O)nc-3n(C[C@H](O)[C@H](O)[C@H](O)COP(=O)(O)O)c2cc1C [FMN]
- absorption and fluorescence spectra of co-purified flavin; photoadduct formation [1]: AsLOV2 is a photosensory domain that binds with FMN as a cofactor
- flavin fluorescence recovery imaging in E. coli colonies after blue light [2]: AsLOV2-V416L and AsLOV2-V416C/T418P/N425P/I466V/F494K exhibited particularly slower thermal reversion kinetics than others
- flavin fluorescence recovery imaging in E. coli colonies after blue light [3]: substitution of V416T, N425Q/I427V, N425S/I427L/I466M and V416T/T418S exhibited particularly faster thermal reversion kinetics
- flavin fluorescence recovery imaging in E. coli colonies after blue light [4]: substitution of V416T, N425Q/I427V, N425S/I427L/I466M and V416T/T418S exhibited particularly faster thermal reversion kinetics
- flavin fluorescence recovery imaging in E. coli colonies after blue light [5]: V416T/T418S exhibited particularly faster thermal reversion kinetics than others
